{"source": "ChEMBL document CHEMBL1201862", "about": "“PubChem BioAssay data set” (2004)", "test_in_all_cases": "inhibition of tumour cell growth, NCI panel, 48 h", "key": {"786-0": {"tested_on": "786-0"}, "A498": {"tested_on": "A498"}, "A549": {"tested_on": "A549"}, "ACHN": {"tested_on": "ACHN"}, "BT-549": {"tested_on": "BT-549"}, "CAKI-1": {"tested_on": "CAKI-1"}, "CCRF-CEM": {"tested_on": "CCRF-CEM"}, "COLO 205": {"tested_on": "COLO 205"}, "DU-145": {"tested_on": "DU-145"}, "EKVX": {"tested_on": "EKVX"}, "HCC 2998": {"tested_on": "HCC 2998"}, "HCT-116": {"tested_on": "HCT-116"}, "HCT-15": {"tested_on": "HCT-15"}, "HOP-62": {"tested_on": "HOP-62"}, "HOP-92": {"tested_on": "HOP-92"}, "HT-29": {"tested_on": "HT-29"}, "Hs-578T": {"tested_on": "Hs-578T"}, "IGROV-1": {"tested_on": "IGROV-1"}, "K562": {"tested_on": "K562"}, "KM12": {"tested_on": "KM12"}, "LOX IMVI": {"tested_on": "LOX IMVI"}, "M14": {"tested_on": "M14"}, "MDA-MB-231": {"tested_on": "MDA-MB-231"}, "MDA-MB-435": {"tested_on": "MDA-MB-435"}, "MDA-N": {"tested_on": "MDA-N"}, "MOLT-4": {"tested_on": "MOLT-4"}, "Malme-3M": {"tested_on": "Malme-3M"}, "NCI-H226": {"tested_on": "NCI-H226"}, "NCI-H23": {"tested_on": "NCI-H23"}, "NCI-H460": {"tested_on": "NCI-H460"}, "NCI-H522": {"tested_on": "NCI-H522"}, "NCI/ADR-RES": {"tested_on": "NCI/ADR-RES"}, "OVCAR-3": {"tested_on": "OVCAR-3"}, "OVCAR-4": {"tested_on": "OVCAR-4"}, "OVCAR-5": {"tested_on": "OVCAR-5"}, "OVCAR-8": {"tested_on": "OVCAR-8"}, "PC-3": {"tested_on": "PC-3"}, "RXF 393": {"tested_on": "RXF 393"}, "SF-268": {"tested_on": "SF-268"}, "SF-295": {"tested_on": "SF-295"}, "SK-MEL-28": {"tested_on": "SK-MEL-28"}, "SK-MEL-2": {"tested_on": "SK-MEL-2"}, "SK-MEL-5": {"tested_on": "SK-MEL-5"}, "SK-OV-3": {"tested_on": "SK-OV-3"}, "SN12C": {"tested_on": "SN12C"}, "SNB-19": {"tested_on": "SNB-19"}, "SNB-75": {"tested_on": "SNB-75"}, "SR": {"tested_on": "SR"}, "SW-620": {"tested_on": "SW-620"}, "T47D": {"tested_on": "T47D"}, "TK-10": {"tested_on": "TK-10"}, "U-251": {"tested_on": "U-251"}, "UACC-257": {"tested_on": "UACC-257"}, "UACC-62": {"tested_on": "UACC-62"}, "UO-31": {"tested_on": "UO-31"}}, "note": "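Cells were grown in 96-well plates and exposed to each compound for 48 hours at five concentrations; endpoints were interpolated linearly between bracketing concentrations, or set to the highest concentration if not reached. GI50 = concentration required for 50% inhibition of growth.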 Active and inactive are the calls of the source. Rule as the data show it: active = GI50 up to about 1.1 µM and inactive = higher."}
{"smiles": "NCCCC[C@H](N)C(=O)Nc1ccc(-c2nc3ccccc3s2)cc1", "values": [{"measurement": "GI50", "setting": "786-0", "result": "18.1 µM (inactive)"}, {"measurement": "GI50", "setting": "A498", "result": "22.1 µM (inactive)"}, {"measurement": "GI50", "setting": "A549", "result": "31.2 µM (inactive)"}, {"measurement": "GI50", "setting": "ACHN", "result": "20.3 µM (inactive)"}, {"measurement": "GI50", "setting": "BT-549", "result": "28.6 µM (inactive)"}, {"measurement": "GI50", "setting": "CAKI-1", "result": "37.9 µM (inactive)"}, {"measurement": "GI50", "setting": "CCRF-CEM", "result": "9.89 µM (inactive)"}, {"measurement": "GI50", "setting": "COLO 205", "result": "18.7 µM (inactive)"}, {"measurement": "GI50", "setting": "DU-145", "result": "21.7 µM (inactive)"}, {"measurement": "GI50", "setting": "EKVX", "result": "10.1 µM (inactive)"}, {"measurement": "GI50", "setting": "HCC 2998", "result": "26.7 µM (inactive)"}, {"measurement": "GI50", "setting": "HCT-116", "result": "19 µM (inactive)"}, {"measurement": "GI50", "setting": "HCT-15", "result": 17.4, "unit": "µM"}, {"measurement": "GI50", "setting": "HOP-62", "result": "25.1 µM (inactive)"}, {"measurement": "GI50", "setting": "HOP-92", "result": "34.7 µM (inactive)"}, {"measurement": "GI50", "setting": "HT-29", "result": "16.5 µM (inactive)"}, {"measurement": "GI50", "setting": "Hs-578T", "result": "23.1 µM (inactive)"}, {"measurement": "GI50", "setting": "IGROV-1", "result": "16.7 µM (inactive)"}, {"measurement": "GI50", "setting": "K562", "result": "19.6 µM (inactive)"}, {"measurement": "GI50", "setting": "KM12", "result": "18.5 µM (inactive)"}, {"measurement": "GI50", "setting": "LOX IMVI", "result": "24.8 µM (inactive)"}, {"measurement": "GI50", "setting": "M14", "result": "12.6 µM (inactive)"}, {"measurement": "GI50", "setting": "MDA-MB-231", "result": "15.1 µM (inactive)"}, {"measurement": "GI50", "setting": "MDA-MB-435", "result": "18.7 µM (inactive)"}, {"measurement": "GI50", "setting": "MDA-N", "result": "15.7 µM (inactive)"}, {"measurement": "GI50", "setting": "MOLT-4", "result": "16.2 µM (inactive)"}, {"measurement": "GI50", "setting": "Malme-3M", "result": "19.4 µM (inactive)"}, {"measurement": "GI50", "setting": "NCI-H226", "result": "25.6 µM (inactive)"}, {"measurement": "GI50", "setting": "NCI-H23", "result": "25.6 µM (inactive)"}, {"measurement": "GI50", "setting": "NCI-H460", "result": "16.9 µM (inactive)"}, {"measurement": "GI50", "setting": "NCI-H522", "result": "17 µM (inactive)"}, {"measurement": "GI50", "setting": "NCI/ADR-RES", "result": "21.6 µM (inactive)"}, {"measurement": "GI50", "setting": "OVCAR-3", "result": "20.4 µM (inactive)"}, {"measurement": "GI50", "setting": "OVCAR-4", "result": "36.2 µM (inactive)"}, {"measurement": "GI50", "setting": "OVCAR-5", "result": "14.9 µM (inactive)"}, {"measurement": "GI50", "setting": "OVCAR-8", "result": "19.8 µM (inactive)"}, {"measurement": "GI50", "setting": "PC-3", "result": "25.6 µM (inactive)"}, {"measurement": "GI50", "setting": "RXF 393", "result": "33.2 µM (inactive)"}, {"measurement": "GI50", "setting": "SF-268", "result": "23.2 µM (inactive)"}, {"measurement": "GI50", "setting": "SF-295", "result": "15.7 µM (inactive)"}, {"measurement": "GI50", "setting": "SK-MEL-28", "result": "19.7 µM (inactive)"}, {"measurement": "GI50", "setting": "SK-MEL-2", "result": "29.1 µM (inactive)"}, {"measurement": "GI50", "setting": "SK-MEL-5", "result": "33.4 µM (inactive)"}, {"measurement": "GI50", "setting": "SK-OV-3", "result": "21.1 µM (inactive)"}, {"measurement": "GI50", "setting": "SN12C", "result": "24.8 µM (inactive)"}, {"measurement": "GI50", "setting": "SNB-19", "result": "16.7 µM (inactive)"}, {"measurement": "GI50", "setting": "SNB-75", "result": "16.8 µM (inactive)"}, {"measurement": "GI50", "setting": "SR", "result": "18.4 µM (inactive)"}, {"measurement": "GI50", "setting": "SW-620", "result": "16.9 µM (inactive)"}, {"measurement": "GI50", "setting": "T47D", "result": "33.7 µM (inactive)"}, {"measurement": "GI50", "setting": "TK-10", "result": "57.7 µM (inactive)"}, {"measurement": "GI50", "setting": "U-251", "result": "14.3 µM (inactive)"}, {"measurement": "GI50", "setting": "UACC-257", "result": "70 µM (inactive)"}, {"measurement": "GI50", "setting": "UACC-62", "result": "21.7 µM (inactive)"}, {"measurement": "GI50", "setting": "UO-31", "result": "12.7 µM (inactive)"}]}
